Measurements reported in PubChem BioAssay AID248 (DTP/NCI, 2004).
Several values for one entry are separate records, joined by “and”; a condition that tells them apart may be missing. Identical values can stand only once. Toxic doses and inconclusive results are not listed. No stated cut-off is given here; in the data, active means T/C of 150% or more; inactive means T/C below 125%.

System: L1210 leukemia ip in BDF1 mice, survival T/C
Assay: NCI In Vivo Anticancer Drug Screen. Data for tumor model L1210 Leukemia (intraperitoneal) in B6D2F1 (BDF1) mice
Conditions: endpoint: mean survival time, higher = longer survival
How it was run: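 Value reflects the ratio of survival in compound-treated mice to survival in vehicle-treated controls, with both groups carrying the same transplanted tumor.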

[1] = dose: 100.0 mg/kg/injection, schedule: Q04DX003 (ip), vehicle: Klucel (hydroxypropylcellulose) (HPC)
[2] = dose: 200.0 mg/kg/injection, schedule: Q04DX003 (ip), vehicle: Klucel (hydroxypropylcellulose) (HPC)
[3] = dose: 400.0 mg/kg/injection, schedule: Q04DX003 (ip), vehicle: Klucel (hydroxypropylcellulose) (HPC)
[4] = dose: 100.0 mg/kg/injection, schedule: Q01DX009 (ip), vehicle: saline with Tween-80
[5] = dose: 200.0 mg/kg/injection, schedule: Q01DX009 (ip), vehicle: saline with Tween-80
[6] = dose: 100.0 mg/kg/injection, schedule: Q01DX009 (ip), vehicle: Klucel (hydroxypropylcellulose) (HPC)
[7] = dose: 200.0 mg/kg/injection, schedule: Q01DX009 (ip), vehicle: Klucel (hydroxypropylcellulose) (HPC)
[8] = dose: 400.0 mg/kg/injection, schedule: Q01DX009 (ip), vehicle: Klucel (hydroxypropylcellulose) (HPC)
[9] = dose: 100.0 mg/kg/injection, schedule: Q04DX003 (ip), vehicle: saline with Tween-80
[10] = dose: 200.0 mg/kg/injection, schedule: Q04DX003 (ip), vehicle: saline with Tween-80
[11] = dose: 400.0 mg/kg/injection, schedule: Q01DX009 (ip), vehicle: saline with Tween-80
[12] = dose: 400.0 mg/kg/injection, schedule: Q04DX003 (ip), vehicle: saline with Tween-80
[13] = dose: 100.0 mg/kg/injection, schedule: Q01DX001 (ip), vehicle: saline
[14] = dose: 200.0 mg/kg/injection, schedule: Q01DX001 (ip), vehicle: saline
[15] = dose: 400.0 mg/kg/injection, schedule: Q01DX001 (ip), vehicle: saline

Measured: T/C

COc1cc(NC(=O)CC(C)=O)cc2c(C)cc(=O)[nH]c12
inactive: dose: 100.0 mg/kg/injection, schedule: Q01DX001 (ip), vehicle: Klucel (hydroxypropylcellulose) (HPC) 104 % of control | [1] 102 % of control | dose: 200.0 mg/kg/injection, schedule: Q01DX001 (ip), vehicle: Klucel (hydroxypropylcellulose) (HPC) 96 % of control | [2] 107 % of control | dose: 400.0 mg/kg/injection, schedule: Q01DX001 (ip), vehicle: Klucel (hydroxypropylcellulose) (HPC) 102 % of control | [3] 102 % of control

N#CC1(c2ccccc2)CC(C(=O)c2ccccc2)C(O)(c2ccccc2)CC1c1ccccc1 (centres undefined)
inactive: dose: 50.0 mg/kg/injection, schedule: Q01DX009 (ip), vehicle: saline with Tween-80 101 % of control | [4] 108 % of control | [5] 101 % of control

CC1CCN(C(=O)NCCCCCCNC(=O)N2CCC(C)CC2)CC1
inactive: [6] 100 % of control | [7] 97 % of control | [8] 90 % of control

C=C(C)COC(N)=O
inactive: [4] 95 % of control | [9] 102 % of control | [5] 96 % of control | [10] 102 % of control | [11] 91 % of control | [12] 103 % of control

Brc1ccc(Oc2ccccc2)cc1
inactive: [4] 101 % of control | [9] 102 % of control | [5] 95 % of control | [10] 97 % of control | [11] 97 % of control | [12] 108 % of control

O=C(NCCF)NC1CCCCCCCCCCC1
inactive: dose: 9.5 mg/kg/injection, schedule: Q01DX001 (ip), vehicle: other 101 % of control | dose: 19.0 mg/kg/injection, schedule: Q01DX001 (ip), vehicle: other 92 % of control | dose: 38.0 mg/kg/injection, schedule: Q01DX001 (ip), vehicle: other 121 % of control

CC1OC2CC(=O)OC2C2=C1C(=O)c1c(O)c3c(c(O)c1C2=O)C1CC(O)C3(O)C(C)O1 (centres undefined)
inactive: dose: 0.01 mg/kg/injection, schedule: Q01DX Z (ip), vehicle: saline 112 % of control | dose: 0.03 mg/kg/injection, schedule: Q01DX Z (ip), vehicle: saline 98 % of control | dose: 0.05 mg/kg/injection, schedule: Q01DX Z (ip), vehicle: saline 90 % of control | dose: 0.1 mg/kg/injection, schedule: Q01DX Z (ip), vehicle: saline 95 % of control | dose: 0.2 mg/kg/injection, schedule: Q01DX Z (ip), vehicle: saline 95 % of control and 100 % of control | dose: 0.4 mg/kg/injection, schedule: Q01DX Z (ip), vehicle: saline 90 % of control | dose: 0.8 mg/kg/injection, schedule: Q01DX Z (ip), vehicle: saline 89 % of control | dose: 1.6 mg/kg/injection, schedule: Q01DX Z (ip), vehicle: saline 94 % of control | dose: 3.2 mg/kg/injection, schedule: Q01DX Z (ip), vehicle: saline 86 % of control | dose: 5.0 mg/kg/injection, schedule: Q01DX001 (ip), vehicle: saline 102 % of control | dose: 6.4 mg/kg/injection, schedule: Q01DX Z (ip), vehicle: saline 92 % of control | dose: 10.0 mg/kg/injection, schedule: Q01DX001 (ip), vehicle: saline 102 % of control | dose: 12.0 mg/kg/injection, schedule: Q01DX Z (ip), vehicle: saline 92 % of control | dose: 12.8 mg/kg/injection, schedule: Q01DX Z (ip), vehicle: saline 87 % of control | dose: 20.0 mg/kg/injection, schedule: Q01DX001 (ip), vehicle: saline 97 % of control | dose: 40.0 mg/kg/injection, schedule: Q01DX001 (ip), vehicle: saline 97 % of control

O=C1c2ccccc2CC1(Br)C(Br)c1ccccc1 (centres undefined)
inactive: dose: 100.0 mg/kg/injection, schedule: Q01DX009 (ip), vehicle: saline sonified 99 % of control | [4] 96 % of control | [1] 104 % of control | [9] 107 % of control | dose: 200.0 mg/kg/injection, schedule: Q01DX009 (ip), vehicle: saline sonified 95 % of control | [5] 91 % of control | [2] 101 % of control | [10] 103 % of control | dose: 400.0 mg/kg/injection, schedule: Q01DX009 (ip), vehicle: saline sonified 94 % of control | [11] 89 % of control | [3] 98 % of control | [12] 104 % of control

S=C(NCc1ccc(Cl)cc1Cl)Nc1ccccc1
inactive: dose: 25.0 mg/kg/injection, schedule: Q01DX009 (ip), vehicle: Klucel (hydroxypropylcellulose) (HPC) 101 % of control | dose: 50.0 mg/kg/injection, schedule: Q01DX009 (ip), vehicle: Klucel (hydroxypropylcellulose) (HPC) 98 % of control | [6] 103 % of control and 109 % of control | [7] 88 % of control

O=C(O)/C=C/c1ccc(Cl)cc1
inactive: dose: 100.0 mg/kg/injection, schedule: Q04DX002 (ip), vehicle: gum acacia 107 % of control | dose: 200.0 mg/kg/injection, schedule: Q04DX002 (ip), vehicle: gum acacia 95 % of control | dose: 400.0 mg/kg/injection, schedule: Q04DX002 (ip), vehicle: gum acacia 107 % of control

Oc1ccc2c(c1)CNCC2
inactive: [13] 96 % of control | [14] 98 % of control | [15] 102 % of control

O=C(CS(=O)(=O)Cc1ccccc1)N1CCOCC1
inactive: [13] 95 % of control | [14] 93 % of control | dose: 200.0 mg/kg/injection, schedule: Q01DX009 (ip), vehicle: saline 89 % of control | [15] 93 % of control | dose: 400.0 mg/kg/injection, schedule: Q01DX009 (ip), vehicle: saline 102 % of control

CCOC(=O)C(CCN1CCCCC1)c1cccc2ccccc12 (centres undefined)
inactive: [1] 100 % of control | [2] 88 % of control

COc1ccccc1/C=C(\C#N)c1cccc2ccccc12
inactive: dose: 25.0 mg/kg/injection, schedule: Q04DX002 (ip), vehicle: Klucel (hydroxypropylcellulose) (HPC) 118 % of control | dose: 50.0 mg/kg/injection, schedule: Q04DX002 (ip), vehicle: Klucel (hydroxypropylcellulose) (HPC) 93 % of control | [6] 94 % of control | dose: 100.0 mg/kg/injection, schedule: Q04DX002 (ip), vehicle: Klucel (hydroxypropylcellulose) (HPC) 107 % of control | [7] 89 % of control | [8] 90 % of control

CCOC(=O)/C(C#N)=C/c1cccn1Cc1ccc2c(c1)OCO2
inactive: dose: 25.0 mg/kg/injection, schedule: Q04DX002 (ip), vehicle: saline 101 % of control | dose: 50.0 mg/kg/injection, schedule: Q04DX002 (ip), vehicle: saline 105 % of control | dose: 100.0 mg/kg/injection, schedule: Q04DX002 (ip), vehicle: saline 105 % of control

CC(C)C1(C)NC(=O)NC1=O (centres undefined)
inactive: dose: 100.0 mg/kg/injection, schedule: Q04DX003 (ip), vehicle: saline 110 % of control | dose: 200.0 mg/kg/injection, schedule: Q04DX003 (ip), vehicle: saline 105 % of control | dose: 400.0 mg/kg/injection, schedule: Q04DX003 (ip), vehicle: saline 100 % of control
